system: C57BL6/J 8-week-old male mice; assay: Immunization of healthy mice with single peptides in adjuvant, echocardiography of heart functionality; type: in vivo, mouse; details: s.c. 100 μg peptide in CFA day 0, boost in IFA day 21; echocardiography at 2, 5 and 9 weeks; versus CTR- (only CFA)
Protocol: C57BL6/J 8-week-old male mice were screened at baseline for heart functionality, via echocardiography, and randomly divided into 5 experimental groups. Mice belonging to control group (CTR-, only CFA) were injected subcutaneously (immunized, but without antigen: negative control) with 100 μl Complete Freud's Adjuvant (CFA) at day 0 and boosted with 100 μl of Incomplete Freud's Adjuvant (IFA) on day 21. Mice belonging to group 3 (CTR+) were injected subcutaneously (immunized, known antigen: positive control) with 100 μg of each of the three peptides (SEQ ID NOs. 15-17) derived from beta-adrenergic receptor and listed in the Table of FIG. 4, emulsified in Complete Freud's Adjuvant (CFA) at day 0 and boosted with 100 μg of the three peptides emulsified in Incomplete Freud's Adjuvant (IFA) on day 21. Mice belonging to group 4_A (Peptide 4_A) were injected subcutaneously (immunized) with 100 μg of the peptide of SEQ ID NO. 1, derived from 14-3-3 protein, emulsified in Complete Freud's Adjuvant (CFA) at day 0 and boosted with 100 μg of each of the three peptides emulsified in Incomplete Freud's Adjuvant (IFA) on day 21. Mice belonging to group 4_B (Peptide 4_B) were injected subcutaneously (immunized) with 100 μg of the peptide of SEQ ID NO. 5, derived from Snrpd1 protein, emulsified in Complete Freud's Adjuvant (CFA) at day 0 and boosted with 100 μg of each of the three peptides emulsified in Incomplete Freud's Adjuvant (IFA) on day 21. Mice belonging to group 4_C (Peptide 4_C) were injected subcutaneously (immunized) with 100 μg of the peptide of SEQ ID NO. 14, derived from Atp5o protein, emulsified in Complete Freud's Adjuvant (CFA) at day 0 and boosted with 100 μg of each of the three peptides emulsified in Incomplete Freud's Adjuvant (IFA) on day 21. On day 0 and day 2, all the mice were intraperitoneally injected with 200 ng of Pertussis Toxin. Heart functionality of all mice was analyzed via echocardiography at 2, 5 and 9 weeks after the first subcutaneous injection. In FIG. 7, the results of echocardiography analysis of cardiac functionality parameters % FS and % EF of C57BL6/J mice immunized with the peptide of SEQ ID NO. 1 (14-3-3 protein), the peptide of SEQ ID NO. 5 (Snrpd1 protein), or the peptide of SEQ ID NO. 14 (Atp5o protein) are shown. […] Data are plotted as mean±SEM, (n=4-6). Two-way ANOVA and Tukey's multiple comparison test with matching subjects. * p<0.05, ** p<0.01, ***p<0.001.

Substance	% EF	% FS
Peptide 4_A: peptide of SEQ ID NO. 1, derived from 14-3-3 protein (LGLALNFSVFYYEIL; listed as Homo sapiens)	significantly reduced	significantly reduced
Peptide 4_B: peptide of SEQ ID NO. 5, derived from Snrpd1 protein (EPVQLETLSIRGNNIRYFILPDSLP; listed as Homo sapiens)	significantly reduced	significantly reduced
Peptide 4_C: peptide of SEQ ID NO. 14, derived from Atp5o protein (LTANLMNLLAENGRL; listed as Mus musculus)	significantly reduced	significantly reduced

Source: patent publication US20220283158A1, “METHOD OF IDENTIFYING PEPTIDE ANTIGENS AND USES THEREOF” (HUMANIRAS MIRASOLE S.P.A., priority 2019, published 2022)
